Laboratory results from EP4755889A1, “COMPOUND FOR DETECTING AMYLOID-BETA OLIGOMER AND METHOD FOR DIAGNOSING DEGENERATIVE BRAIN DISEASE USING SAME” (Amyloid Solution Inc., priority 2024, dated 2025).

Target: T1, fibrinogen (Homo sapiens, UniProt P02671+P02675+P02679)
T1 construct: purchased Sigma-Aldrich
T1 sequence (P02671 20-629 limits assumed): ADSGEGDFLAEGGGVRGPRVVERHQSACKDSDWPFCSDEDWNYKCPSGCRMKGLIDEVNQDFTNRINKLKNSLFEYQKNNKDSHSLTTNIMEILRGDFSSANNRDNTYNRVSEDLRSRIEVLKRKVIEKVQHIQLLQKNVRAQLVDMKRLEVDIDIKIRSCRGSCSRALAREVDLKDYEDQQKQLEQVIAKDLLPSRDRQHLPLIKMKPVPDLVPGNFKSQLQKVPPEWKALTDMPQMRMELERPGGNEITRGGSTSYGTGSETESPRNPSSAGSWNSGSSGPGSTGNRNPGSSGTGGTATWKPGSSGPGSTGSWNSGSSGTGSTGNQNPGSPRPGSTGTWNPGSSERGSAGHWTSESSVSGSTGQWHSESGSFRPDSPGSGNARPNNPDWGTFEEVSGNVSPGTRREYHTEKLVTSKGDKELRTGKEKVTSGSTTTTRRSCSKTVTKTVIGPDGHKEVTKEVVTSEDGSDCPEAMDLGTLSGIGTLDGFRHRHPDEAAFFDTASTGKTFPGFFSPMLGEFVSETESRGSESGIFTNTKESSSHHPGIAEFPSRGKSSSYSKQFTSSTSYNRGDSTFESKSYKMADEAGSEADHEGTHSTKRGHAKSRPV
T1 sequence (P02675 31-491): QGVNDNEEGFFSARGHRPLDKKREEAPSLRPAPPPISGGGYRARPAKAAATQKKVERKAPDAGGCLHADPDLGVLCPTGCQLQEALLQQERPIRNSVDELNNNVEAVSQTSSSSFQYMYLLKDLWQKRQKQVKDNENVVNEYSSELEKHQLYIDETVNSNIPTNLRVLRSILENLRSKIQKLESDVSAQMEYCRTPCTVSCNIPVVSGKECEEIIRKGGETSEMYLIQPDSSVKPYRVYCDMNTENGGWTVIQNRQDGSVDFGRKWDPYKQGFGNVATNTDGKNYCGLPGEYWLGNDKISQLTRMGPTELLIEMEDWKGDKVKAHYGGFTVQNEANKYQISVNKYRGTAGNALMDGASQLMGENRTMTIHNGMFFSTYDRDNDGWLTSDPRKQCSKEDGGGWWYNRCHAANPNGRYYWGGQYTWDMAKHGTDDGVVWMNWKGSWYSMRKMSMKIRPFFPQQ
T1 sequence (P02679 27-453): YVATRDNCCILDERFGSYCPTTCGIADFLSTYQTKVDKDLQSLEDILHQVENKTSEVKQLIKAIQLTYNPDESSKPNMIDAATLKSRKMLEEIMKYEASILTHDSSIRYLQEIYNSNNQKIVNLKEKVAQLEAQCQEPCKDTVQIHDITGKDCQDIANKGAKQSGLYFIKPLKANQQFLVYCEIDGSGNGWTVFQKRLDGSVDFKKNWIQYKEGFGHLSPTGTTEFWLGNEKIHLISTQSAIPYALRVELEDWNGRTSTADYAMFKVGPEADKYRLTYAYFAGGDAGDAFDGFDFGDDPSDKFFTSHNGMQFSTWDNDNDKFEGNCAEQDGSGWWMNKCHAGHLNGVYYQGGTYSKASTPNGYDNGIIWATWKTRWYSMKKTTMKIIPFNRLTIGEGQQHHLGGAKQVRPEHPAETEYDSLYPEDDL
Test: Selectivity for blood proteins: fibrinogen
Type: binding
Conditions: IK15j (25 µM)
Experimental: Aβ1-42 peptide was aggregated at 37 °C for 8 hours, and 25 µM of Aβ1-42 oligomers, albumin (Sigma-Aldrich, USA), and fibrinogen (Sigma-Aldrich, USA) were seeded into a black microplate. Each sample was treated with IK15j (100 µM) for 8 hours at room temperature. The signal of each sample was detected using a microplate reader (λex = 285 nm / λem = 475 nm).
Excluding water, the solid components of plasma consist of coagulation factors and plasma proteins. Albumin is the most abundant protein in plasma, and fibrinogen is a major coagulation factor in plasma. Considering the possibility that fibrinogen or albumin might interact with AD diagnostic tools and interfere with compound selectivity, IK15j (25 µM) was incubated with Aβ1-42, albumin, or fibrinogen as described in Reference Example 10, and the fluorescence signal of each sample was measured to evaluate the selectivity of the compound of the present disclosure against these proteins.

interaction with fibrinogen: did not interact
SMILES: Cc1ccc2c(c1)c(-c1ccccc1)cn1c(C)cc(C#N)c21 [IK15j, 3,8-dimethyl-6-phenylpyrrolo[2,1-a]isoquinoline-1-carbonitrile]
